Broadly, the melting point is the temperature, or range, at which the solid turns liquid.

Some results are limits rather than exact numbers.

For `CNC1CCN(c2ccccc2NC(=O)c2cnc3c(-c4ccc(Cl)cc4)cnn3c2)CC1` [Compound B16], the melting point is 226 to 228 °C.

Compound `C=CCNC1CCN(c2ccccc2NC(=O)c2cnc3c(-c4ccc(Cl)cc4)cnn3c2)CC1` [Compound B20] registered a melting point of 229 to 230 °C.

Compound `CCCNC1CCN(c2ccccc2NC(=O)c2cnc3c(-c4cccc(Cl)c4)cnn3c2)CC1` [Compound B6] registered a melting point of 187 to 189 °C.

`NCCC1CCCCN1c1ccccc1NC(=O)c1ccn2ncc(-c3cccc(Cl)c3)c2n1.O=C(O)/C=C/C(=O)O` (stereo not shown) [Compound B313] registered a melting point of 211 to 212 °C.

`O=C(Nc1cnc2c(-c3ccc(Cl)cc3)cnn2c1)c1ccccc1N1CCNCC1` [Compound B277]: the melting point fell in the range of 236 to 238 °C.

Compound `CCCNC1CCN(c2ccccc2NC(=O)Nc2cnc3c(-c4cccc(Cl)c4)cnn3c2)CC1` [Compound B199] showed a melting point of 152 to 155 °C.

The compound `CCCCNC1CCN(c2ccccc2NC(=O)c2cnc3c(-c4cccc(Cl)c4)cnn3c2)CC1` [Compound B8] had a melting point of 191 to 192 °C.

On to `O=C(Nc1cnc2c(-c3cccc(Cl)c3)cnn2c1)c1ccccc1N1CCNCC1` [Compound B165], for which the melting point is 269 to 271 °C.

As for `NC[C@@H]1CCCN1c1ccccc1NC(=O)c1cnc2c(-c3ccc(Cl)cc3)cnn2c1` [Compound B30], the melting point lay in the range of 203 to 204 °C.

`CNC[C@H]1CCCN1c1ccccc1NC(=O)c1ccn2ncc(-c3cccc(Cl)c3)c2n1` [Compound B215] yielded a melting point of 97 to 98 °C.

`O=C(Nc1ccccc1N1CC[C@@H](NCCO)C1)c1ccn2ncc(-c3cccc(Cl)c3)c2n1` [Compound B170] came in with a melting point of 125 to 127 °C.

Regarding `O=C(Nc1ccccc1N1CCC[C@H]1CNCCO)c1cnc2c(-c3ccc(Cl)cc3)cnn2c1` [Compound B25], the melting point was in the range of 134 to 136 °C.

`CCCNC1CCN(c2ccccc2NC(=O)C2=CNc3c(-c4ccc(Cl)cc4)cnn3C2)CC1` [Compound B319]: the melting point lay in the range of 216 to 217 °C.

For the compound `NC[C@H]1CCCN1c1ccccc1NC(=O)c1ccn2ncc(-c3cccc(Cl)c3)c2n1` [Compound B196], the melting point was in the range of 168 to 170 °C.

`C=CCNC1CCN(c2ccccc2NC(=O)Nc2cnc3c(-c4ccc(Cl)cc4)cnn3c2)CC1` [Compound B43] had a melting point of 152 to 153 °C.

As for `O=C(Nc1ccccc1N1CC[C@@H](NCCO)C1)c1cnc2c(-c3ccc(Cl)cc3)cnn2c1` [Compound B245], the melting point fell in the range of 164 to 165 °C.

In turn, `CNC1CCN(c2ccccc2NC(=O)Nc2cnc3c(-c4ccc(Cl)cc4)cnn3c2)CC1` [Compound B36] gave a melting point of 137 to 140 °C.

In turn, `O=C(NCc1ccccc1N1CCOCC1)c1ccn2nc(-c3ccccc3)cc2n1` [Example 12, N-(2-morpholinophenyl)methyl 2-phenyl-pyrazolo-[1,5-a]-pyrimidine-5-amide] came in with a melting point of 190 to 192 °C.

For `NCCN[C@H]1CCN(c2ccccc2NC(=O)c2ccn3ncc(-c4cccc(Cl)c4)c3n2)C1` [Compound B173], the melting point is 160 to 162 °C.

In the case of `O=C(NCc1ccccc1N1CCNCC1)Nc1cnc2c(-c3cccc(Cl)c3)cnn2c1` [Compound B40], the melting point is 196 to 197 °C.

Take `CCCCNC1CCN(c2ccccc2NC(=O)c2cnc3c(-c4ccc(Cl)cc4)cnn3c2)CC1` [Compound B23]: the melting point lay in the range of 222 to 224 °C.

Turning to `CNC1CCN(c2ccccc2NC(=O)Nc2cnc3c(-c4cccc(Cl)c4)cnn3c2)CC1` [Compound B55], the melting point is 117 to 128 °C (dec.).

`CCC(C)NC1CCN(c2ccccc2NC(=O)Nc2cnc3c(-c4ccc(Cl)cc4)cnn3c2)CC1` (stereo not shown) [Compound B336] registered a melting point of more than 300 °C.

For the compound `CCC(C)NC1CCN(c2ccccc2NC(=O)c2cnc3c(-c4ccc(Cl)cc4)cnn3c2)CC1` (stereo not shown) [Compound B243], the melting point fell in the range of 229 to 231 °C.

`NC[C@H]1CCCN1c1ccccc1NC(=O)c1ccn2ncc(-c3ccc(Cl)cc3)c2n1` [Compound B318]: the melting point lay in the range of 186 to 188 °C.

The compound `Clc1cccc(-c2cnn3ccc(/C4=N/c5ccccc5N5CCCCC5CN4)nc23)c1` (stereo not shown) [Compound B292] showed a melting point of 190 to 191 °C.

Take `N[C@@H]1CCN(c2ccccc2NC(=O)c2cnc3c(-c4ccc(Cl)cc4)cnn3c2)C1` [Compound B28]: the melting point lay within 184 to 186 °C.

`CC(C)NC1CCN(c2ccccc2NC(=O)Nc2cnc3c(-c4ccc(Cl)cc4)cnn3c2)CC1` [Compound B203] yielded a melting point of more than 300 °C.

`O=C(Nc1ccccc1N1CCC(O)CC1)c1cnc2c(-c3ccc(Cl)cc3)cnn2c1` [Compound B24] had a melting point of 256 to 261 °C.

As for `O=C(Nc1cnc2c(-c3ccc(Cl)cc3)cnn2c1)Nc1ccccc1N1CCNCC1` [Compound B218], the melting point lay in the range of 183 to 184 °C.

Take `CCC(C)NC1CCN(c2ccccc2NC(=O)c2cnc3c(-c4cccc(Cl)c4)cnn3c2)CC1` (stereo not shown) [Compound B11]: the melting point was in the range of 202 to 204 °C.

With `COc1ccc(NC(=O)c2ccn3ncc(-c4cccc(Cl)c4)c3n2)cc1N1CCNCC1` [Compound B314], the melting point is 100 to 102 °C (dec.).

Compound `NCCN[C@@H]1CCN(c2ccccc2NC(=O)c2ccn3ncc(-c4cccc(Cl)c4)c3n2)C1.O=C(O)/C=C/C(=O)O` [Compound B172] came in with a melting point of 151 to 152 °C.

The compound `O=C(Nc1ccccc1N1CCC[C@@H]1CNCCO)c1ccn2ncc(-c3cccc(Cl)c3)c2n1` [Compound B198] displayed a melting point of 118 to 121 °C.

As to `CCNC1CCN(c2ccccc2NC(=O)Nc2cnc3c(-c4cccc(Cl)c4)cnn3c2)CC1` [Compound B58], the melting point is 157 to 159 °C (dec.).

Take `CC(C)NC1CCN(c2ccccc2NC(=O)c2cnc3c(-c4ccc(Cl)cc4)cnn3c2)CC1` [Compound B18]: the melting point lay within 246 to 247 °C.

`CCCCNC1CCN(c2ccccc2NC(=O)Nc2cnc3c(-c4ccc(Cl)cc4)cnn3c2)CC1` [Compound B293] displayed a melting point of 138 to 143 °C.

The compound `CC(C)NC1CCN(c2ccccc2NC(=O)c2cnc3c(-c4cccc(Cl)c4)cnn3c2)CC1` [Compound B9] registered a melting point of 206 to 208 °C.

With `CCNC1CCN(c2ccccc2NC(=O)c2cnc3c(-c4cccc(Cl)c4)cnn3c2)CC1` [Compound B5], the melting point lay within 193 to 195 °C.

Regarding `COc1ccc(NC(=O)c2ccn3ncc(-c4ccc(Cl)cc4)c3n2)cc1N1CCNCC1` [Compound B317], the melting point is 210 to 212 °C.

Regarding `NCC1CCCCN1c1ccccc1NC(=O)c1ccn2ncc(-c3cccc(Cl)c3)c2n1` (stereo not shown) [Compound B316], the melting point was in the range of 159 to 160 °C.

`O=C(Nc1cnc2c(-c3cccc(Cl)c3)cnn2c1)Nc1ccccc1N1CCNCC1` [Compound B249] registered a melting point of 120 to 140 °C.

The compound `O=C1CCN(c2ccccc2NC(=O)c2cnc3c(-c4cccc(Cl)c4)cnn3c2)CC1` [Compound B1] gave a melting point of 212 °C.

`CCNC1CCN(c2ccccc2NC(=O)Nc2cnc3c(-c4ccc(Cl)cc4)cnn3c2)CC1` [Compound B38] displayed a melting point of 155 to 157 °C.

`CCNC1CCN(c2ccccc2NC(=O)c2cnc3c(-c4ccc(Cl)cc4)cnn3c2)CC1` [Compound B17]: the melting point was in the range of 234 to 236 °C.

On to `O=C(NCc1ccccc1N1CCNCC1)Nc1cnc2c(-c3ccc(Cl)cc3)cnn2c1` [Compound B263], for which the melting point fell in the range of 185 to 187 °C.

Turning to `CNC1CCN(c2ccccc2NC(=O)c2cnc3c(-c4cccc(Cl)c4)cnn3c2)CC1` [Compound B3], the melting point was in the range of 215 to 217 °C.

The compound `O=C(Nc1ccccc1N1CC[C@H](NCCO)C1)c1ccn2ncc(-c3cccc(Cl)c3)c2n1` [Compound B171] came in with a melting point of 124 to 125 °C.

In the case of `CCCNC1CCN(c2ccccc2NC(=O)Nc2cnc3c(-c4ccc(Cl)cc4)cnn3c2)CC1` [Compound B41], the melting point was 151 to 153 °C.

Consider `C=CCNC1CCN(c2ccccc2NC(=O)Nc2cnc3c(-c4cccc(Cl)c4)cnn3c2)CC1` [Compound B59], for which the melting point was 150 to 154 °C (dec.).

Take `CCCNC1CCN(c2ccccc2NC(=O)c2cnc3c(-c4ccc(Cl)cc4)cnn3c2)CC1` [Compound B19]: the melting point was 235 to 237 °C.

Turning to `O=C(Nc1ccc(N2CCNCC2)cc1)c1cnc2c(-c3ccc(Cl)cc3)cnn2c1` [Compound B280], the melting point is 267 to 269 °C (dec.).
